Source: patent US20260265177A1, “BICYCLIC COMPOUNDS AS INACTIVATORS OF OAT AND GABA-AT” (Northwestern University, priority 2023, published 2026)

Key:
Assay type in all cases: biochemical
GABA-AT = assay: Time-dependent inhibition of GABA-AT; details: conclusion statement
Description: Time-dependent inhibition of both GABA-AT and OAT were explored with racemic 6 (FIGS. 4 and 5). […] Racemic Vince lactam was used for the aforementioned biological assays.

hOAT [1] = molecular target: T1, hOAT (Homo sapiens, UniProt P04181); assay: Dialysis of hOAT inactivated by compound; details: hOAT dialyzed at 5° C. for 72 hours
T1 sequence (P04181 36-439 limits assumed): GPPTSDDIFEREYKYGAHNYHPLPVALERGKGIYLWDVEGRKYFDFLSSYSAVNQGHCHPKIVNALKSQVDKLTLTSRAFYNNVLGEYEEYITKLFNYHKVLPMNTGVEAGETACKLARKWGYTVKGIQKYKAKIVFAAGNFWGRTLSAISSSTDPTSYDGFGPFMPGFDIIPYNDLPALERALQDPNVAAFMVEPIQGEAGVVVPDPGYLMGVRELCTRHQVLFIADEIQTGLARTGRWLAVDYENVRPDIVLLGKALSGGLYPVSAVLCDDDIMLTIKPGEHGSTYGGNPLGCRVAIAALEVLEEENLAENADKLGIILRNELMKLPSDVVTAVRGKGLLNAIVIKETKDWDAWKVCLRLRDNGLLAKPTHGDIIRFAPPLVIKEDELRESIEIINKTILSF
Method: Samples of hOAT that had been inactivated by varying equivalents of 6 were dialyzed at 5° C. for 72 hours. At 4-, 12-, 24-, 48-, and 72-hour time points, aliquots were taken and the activity of the hOAT was measured.

hOAT [2] = molecular target: T1, hOAT; assay: Turnover number and partition ratio by titrating hOAT with varying equivalents of inactivator
Method: The turnover number and partition ratio of 6 were determined by titrating a known amount of hOAT with varying equivalents of inactivator (FIG. 12). The linear relationship of the remaining enzymatic activity was extrapolated to yield the number of equivalents of 6 required to inactivate the enzyme completely. From this we determined the turnover number of 6 to be 8.5 equivalent and the partition ratio to be 7.5. Based on our understanding of the mechanism, we believe that the turnover number may indicate that the second deprotonation is slow, which would allow the ketimine time to hydrolyze in a higher percentage than if the second deprotonation occurred rapidly.

hOAT [3] = molecular target: T1, hOAT; assay: Time-dependent inactivation of hOAT; details: enantiopure compound

With `N[C@@H]1CC2C(F)(F)[C@@]2(C(=O)O)C1` (stereo partly drawn) [compound 6, (1S,3R)-3-amino-6,6-difluorobicyclo[3.1.0]hexane-1-carboxylic acid] the “activity in GABA-AT” value (GABA-AT) was “modest activity”, the “enzymatic activity recovered after dialysis” value (hOAT [1]) was “No enzymatic activity was recovered” and the partition ratio (hOAT [2]) was 7.5. It also gave a turnover number (hOAT [2]; extrapolated from linear relationship of remaining enzymatic activity) of 8.5 equivalent and a kinact/KI (hOAT [3]) of 2.6 M⁻¹ s⁻¹.
